# Experimental data published in patent US20060183733A1, “Treating microvasculature diseases with acetyl cholinesterase inhibitors” (priority 2005, published 2006).
# Values joined by “and” are separate entries in the source; they are usually repeats but may differ in a detail not shown here. Equal entries are not always repeated. “Also recorded” adds a separate entry of the source.
# How the values were obtained:
# [1] = system: patients with peripheral vascular disease and diabetes mellitus; test: Patient case histories: microvascular disease / vascular insufficiency; type: in vivo, human; conditions: for side effects: donepizil 5-10 mg daily
# From the text: In summary, vascular insufficiency from diabetes is associated with compromise of the microvascular circulation. Treatment with an effective dose of an acetylcholinesterase inhibitor raises the relative concentration of acetylcholine promoting vasodilitation of the microcirculation (end arterioles) through stimulation of neuronal and non-neuronal acetylcholine receptors in the intima of the blood vessels. The beneficial effects of promoting vasodilitation and enhanced tissue perfusion correcting the dystrophic changes and alleviating ischemic pain and ulcers is readily apparent in this series of patients.
# The present invention provides a method for the medical management of peripheral vascular disease. The management of peripheral vascular disease with acetylcholinesterase inhibitor addresses the central dilemma in vascular perfusion of the lower extremities. By increasing the relative concentration of acetylcholine, the parasympthetic nervous system is enhanced, improving blood flow at the tissue level by relaxation of the small end arterioles and improving perfusion therefore decreasing vascular edema, enhancing resolution of trohpic ulcers and alleviating rest pain and claudication complaints. The parasympathetic nervous system controls vascular beds in the small arterioles and by increasing the available acetylcholine, dilatation occurs and blood flow improves. By treatment with acetylcholinesterase inhibitors the end results in improved vascular blood supply, decreased congestion at the small arterioles level and improved blood supply. This is particularly necessary in diabetic patients. The presence of non-neuronal acetylcholine receptors with the intima of blood vessels at the microvascular level represents a second physiologic mechanism whereby dilatation of small blood vessels is facilitated by the use of an acetylcholinesterase inhibitor. This latter mechanism owing to the sensitive nature of the cholinesterases associated with the non neuronal acetylcholine system provides sustained cholinergic activity impacting the microvascular circulation and improving perfusion at the critical end arteriole-capillary-venule level.
# [2] = system: patients with chronic renal insufficiency; test: Patient case histories: chronic renal insufficiency (serum creatinine, BUN); type: in vivo, human
# From the text: To postpone or avoid the sequelae of chronic renal insufficiency, treatment with acetylcholinesterase inhibitors increase the concentration of acetycholine available to promote blood flow to the renal cortex preventing loss of nephrons and allowing existing renal parenchyma to provide the vital function of the kidney. Just as parasympathetic outflow provide homeostatic neural input to the elimination of function of the intestine, the same parasympathetic innervation provides vasodilatation of the small arterioles supplying the cortex of the kidneys allowing for optimal functioning.
# [3] = system: patients with diabetic polyneuropathy; type: in vivo, human; conditions: drug stopped after initial improvement
# From the text: The symptoms of motor and sensory loss of diabetic polyneuropathy are ameliorated by acetylcholinesterase inhibitions by increasing concentration of acetylcholine, the principle neurotransmitter of the parasympathetic nervous system. By augmenting the trophic input of nerves of parasympathic nervous system; pain and dyserethesia are diminished and weakness/atrophy of muscles are diminished. The clinical observation in non-Alzheimer's patients is an improvement in motor and sensory function following treatment with effective doses of an acetylcholinesterase inhibitor. Improved blood flow within the microvascular circulation supplying the vasovasorum of the nerves produces the beneficial effect. By restoring blood flow to the vasovasorum of the nerves ischemic pain is relieved and normal function of the nerve is allowed to occur. The process of vasodilatation of the microvascular circulation is mediated through both neuronal and non-neuronal acetylcholine receptors stimulation by acetylcholine. Enhancement in acetylcholine levels is effected through treatment with acetylcholinesterase inhibitors.
# The physiologic shift favoring vasoconstriction that is associated with diabetes is reversed following administration of an acetylcholinesterase inhibitor allowing perfusion of the microvasculature, restoring blood flow to ischemic motor and sensory nerves damaged by the effects of diabetes.
# patients with lymphedema = type: in vivo, human; conditions: donepizil 5 mg orally daily
# From the text: The improvement in perfusion within the small arterioles decreases the hydrostatic pressure at the end arterioles and therefore reduces interstitial fluid accumulation that impedes the return of lymph fluid within the lymphatic vessels. The physics model for this phenomenon makes use of Bernouli's equation and its relationship to a Venturi tube. Hydrostatic pressure proximal to a relative stricture creates a pressure gradient that leads to increased transudation that overwhelms the capacity of the lymphatic system to manage. The vasodilatory effects of the parasympathetic nervous system upon small arterioles produces improved perfusion and lessens the accumulation of lymphedema. A common example of lymphedema occurs following joint replacement surgery with swelling that persists for three to six months and sometimes permanently. Lymphedema following joint replacement surgery slows recovery and creates pain while predisposing to deep vein thrombosis and infection.
# [4] = system: patients with phantom pain; test: Patient case histories: phantom pain following amputation; type: in vivo, human; conditions: donepizil 5 mg daily
# From the text: The present invention further provides a method of treating phantom pain following amputation in both upper and lower extremities. “Phantom pain” is a phenomenon described following amputation of either an upper or lower extremity. The sensation is common following amputation and present with varying degrees of discomfort and debility. A patient with phantom pain is typically treated with antidepressants, Neurontin® (gabapeninand) narcotics to a varying degree. The use of acetylcholinesterase inhibitors decreases the need for narcotics and generally eliminates the need for poly pharmacy improving pain, enhancing wound healing and improved sleep pattern in amputee patients. The dose of acetylcholinesterase inhibitor is titrated to GI (gastrointestinal) tolerance with bowel movement consistency and frequency the determining factors. Treatment with acetylcholinesterase inhibitor increases the available acetylcholine which is the neurotransmitter responsible for activation of the parasysmpathic nervous system appear responsible for Noxious symptoms of phantom pain for discomfort. The present invention provides a method of treating phantom pain associated with amputation of either upper or lower extremity.
# [5] = system: patients with rheumatologic conditions (RA, SLE, PMR, polymyositis); test: Patient case histories: rheumatological conditions; type: in vivo, human
# From the text: The use of an acetylcholinesterase inhibitor raises level of acetylcholine by inhibition of cholinesterase. The Increased levels of acetylcholine stimulate neuronal receptors of the parasympathetic nervous system and non-neuronal receptors associated with the intima of blood vessels and leukocytes. This dual effect of improving flow within the microvascular circulation and stabilization of leukocytes and their adhesion to the wall of blood vessel produces the anti-inflammatory effect that is observed with the use of an acetylcholinesterase inhibitor for treatment of rheumatologic diseases.
# [6] = system: patients with Parkinson's disease; conditions: donepizil decreased from 10 mg to 5 mg daily
# [7] = system: patients with urinary retention; test: Patient case histories: urinary retention (voiding trials, post void residuals)
compound,measurement,setting,value
"COc1cc2c(cc1OC)C(=O)C(CC1CCN(Cc3ccccc3)CC1)C2 (stereo not drawn) [donepizil, 1-benzyl-4->(5,6-dimethoxy-1-indanon)-2-yl methylpiperidine]","clinical outcome (vascular edema, ulcers, pain, foot temperature)","[1]; donepizil 5 mg daily, 2 weeks to >1 year, single patients, listed as donepezil",the heel ulcer completely resolved
same,side effects,[1],no diarrhea or ulcer symptoms; also recorded: No serious untoward side effects were noted; also recorded: able to tolerate this treatment for the next 6 months; also recorded: No deleterious side effects such a diarrhea or acid reflux were noted; also recorded: no diarrhea or symptoms of gastrointestinal reflux; also recorded: without any untoward side effects; also recorded: without deleterious side affects such a diarrhea or acid reflux; also recorded: absence of any adverse side effects
same,side effects,[1]; listed as donepezil,without nausea/vomiting or diarrhea symptoms
same,"clinical outcome (ulcers, edema, phantom discomfort)","[1]; donepizil increased to 10 mg daily, additional one month (a person)",near complete healing of the leg ulcers and complete resolution of their edema
same,serum creatinine,"[2]; donepizil 5 mg daily one month then 10 mg daily one month, before treatment 1.8",0.8
same,serum creatinine,"[2]; donepizil 5 mg one week then 10 mg daily, two weeks of treatment, 5.5 on admission, on hemodialysis (Parkinson's patient)",4.2
same,side effects,[2]; donepizil 5 mg orally daily,no untoward side effects; also recorded: no evidence of metabolic acidosis or hyperkalemia; also recorded: no adverse side effects
same,serum creatinine,"[2]; donepizil 5 mg orally daily one month after switch from galantamine, 1.8 before any treatment",1.0
same,BUN (blood urea nitrogen),"[2]; donepizil 5 mg orally daily one month after switch from galantamine, 32 before any treatment",14
same,serum creatinine,"[2]; donepizil 5 mg orally daily, 4 weeks/one month, before treatment 1.7, 1.8, 1.4, 1.6, 1.7",1.0 and 1.4 and 1.1 and 1.6 and 0.9
same,serum creatinine,"[2]; donepizil 5 mg orally daily, about 6 weeks, before treatment b104 1.4, b106 1.8",1.0 and 1.1
same,BUN (blood urea nitrogen),"[2]; donepizil 5 mg orally daily, about 6 weeks, before treatment b104 37, b106 30",21 and 19
same,serum creatinine,"[2]; donepizil 5 mg orally daily, three weeks, before treatment 2.8, on lisinopril",1.4
same,BUN (blood urea nitrogen),"[2]; donepizil 5 mg orally daily, three weeks, before treatment 39",26
same,serum creatinine,"[2]; donepizil 5 mg orally daily, two to three months, before treatment 1.7, 1.8, 1.7",1.1 and 0.9 and 1.2
same,BUN (blood urea nitrogen),"[2]; donepizil 5 mg orally daily, two to three months, before treatment b96 48, b110 35",20 and 19
same,BUN (blood urea nitrogen),"[2]; donepizil 5 mg orally daily, two weeks, before treatment 30",22
same,serum creatinine,"[2]; donepizil 5 mg orally daily, up to two weeks, before treatment b100 1.6, b106 1.8",1.3
same,serum creatinine,"[2]; donepizil 10 mg daily continued for the next month, 5.5 on admission, hemodialysis discontinued",2.1
same,course after the drug was withdrawn or lapsed,[3],progressive decline in their ability and strength over the next 7-10 days
same,side effects,patients with lymphedema,suffered symptoms of diarrhea or nausea
same,"clinical outcome (phantom pain, sleep)",[4],dramatic improvement in here phantom discomfort; also recorded: prompt improvement in their pain control; also recorded: phantom pain diminished to the point they no longer required Oxycotin®; also recorded: notable improvement in leg discomfort; also recorded: much improved phantom discomfort and improved sleep; also recorded: no symptoms of vascular insufficiency in their contralateral extremity
same,"clinical outcome (movement, pain, sleep, edema)",[5]; donepizil 5 mg orally daily,return of movement in their feet bilaterally; also recorded: improved sleep pattern and decreased pain; also recorded: edema previously noted in their feet bilaterally resolved; also recorded: became ambulatory; also recorded: improvement in their pain complaints and decreased swelling in their ankles bilaterally
same,"erythrocyte sedimentation rate (ESR), follow up","[5]; donepizil 5 mg orally daily, Polymyalgia Rheumatica",in the normal range
same,"clinical outcome (strength, swelling, vision)","[5]; donepizil 10 mg daily, Systemic Lupus Erythematosis",improved strength in their arms; also recorded: resolved as well as dysesthesias; also recorded: improved but not sufficient to allow for ambulation; also recorded: no return of vision; also recorded: return of movement in their feet bilaterally with decreased lower extremity swelling
same,post void residuals,"[5]; donepizil 10 mg, SLE patient with urinary retention",less than 100 cc
same,side effects,[5]; donepizil 5-10 mg daily,"no symptoms of diarrhea or nausea; also recorded: without incident, adverse side effects or deterioration in their condition; also recorded: no symptoms of diarrhea; also recorded: no untoward side effects"
same,course after dose reduction,[6],notable deterioration in their motor function and a return of Parkinsonian symptoms
same,post void residuals (PVR's),[7]; donepizil 5 mg orally daily with Detrol LA 2 mg orally daily,less than 100 cc
same,voiding trial,"[7]; donepizil 5 mg orally daily, 24-48 hours or more before the trial",able to void without incident; also recorded: successful
